{"source": "patent US11896678B2", "about": "“Compositions and methods for treatment of peroxisome proliferator-activated receptor gamma (PPARG) activated cancer” (THE BROAD INSTITUTE, INC., priority 2017, dated 2024)", "key": {"PPARG": {"molecular_target": "T1, PPARG (Homo sapiens, UniProt P37231)", "T1 construct": "endogenous in cells; host or cells: RT112/84 bladder cancer cells (FABP4-NLucP knock-in clone)", "T1 sequence (P37231 1-477 isoform P37231-2)": "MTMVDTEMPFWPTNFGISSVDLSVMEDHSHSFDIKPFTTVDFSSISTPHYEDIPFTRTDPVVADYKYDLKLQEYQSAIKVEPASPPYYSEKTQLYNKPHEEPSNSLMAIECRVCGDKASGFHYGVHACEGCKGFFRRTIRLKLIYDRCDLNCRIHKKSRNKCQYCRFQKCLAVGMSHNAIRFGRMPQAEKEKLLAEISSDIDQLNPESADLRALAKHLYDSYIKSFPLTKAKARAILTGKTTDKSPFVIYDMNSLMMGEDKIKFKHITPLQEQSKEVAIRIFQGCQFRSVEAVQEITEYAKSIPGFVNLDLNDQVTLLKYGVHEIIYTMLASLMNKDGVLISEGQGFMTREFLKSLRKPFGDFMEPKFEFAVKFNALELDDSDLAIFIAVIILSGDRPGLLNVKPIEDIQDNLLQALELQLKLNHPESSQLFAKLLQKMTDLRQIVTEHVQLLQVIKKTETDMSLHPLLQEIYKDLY", "assay": "RT112/84 FABP4-NLucP reporter gene assay, unstimulated", "format": "cell-based", "from_the_text": "Next, a PPARG reporter cell line was engineered to enable higher throughput assays to evaluate PPARG transactivation. Briefly, a destabilized NanoLuc luciferase reporter gene was inserted into the 3′-UTR of the FABP4 gene in the RT112/84 bladder cancer cell line using CRISPR/Cas9 mediated homology-directed repair (FIG. 4A).\nRT112-FABP4-NLucP Reporter Gene Assay: Reporter cell line was generated by engineering NanoLuc gene into the 3′ UTR of FABP4 in RT112/84 cells using CRISPR/Cas9 guided genome engineering. Single cell clones were generated and the clone with the widest dynamic range selected for use. Assays were performed by seeding 384-well plates with ˜10,000 cells per well in MEMalpha containing 10% FBS and dosing compounds at indicated concentration using HP D300 digital dispenser (HP/Tecan). 18-24 hours after dosing with compound, cells were assayed using NanoGlo Luciferase Assay Reagent (Promega Madison, WI) and plates were read using EnVision Multilabel Reader (PerkinElmer Waltham, MA)."}, "FABP4 expression": {"test_system": "FABP4 expression", "assay": "Immunoblot of FABP4 in bladder cancer cell lines", "format": "cell-based, human", "details": "panel of bladder cancer cell lines", "description": "Western Blot Analysis: Western blots were performed using standard protocols with semi-dry transfer Trans-Blot® SD (Bio-Rad Hercules, CA), Li-Cor Odyssey Blocking buffer, and imaging with LiCor Odyssey Imaging System (LI-COR Lincoln, NE). Briefly, cells were grown in 6-well plates and harvested using Complete Lysis-M with protease and phosphatase inhibitors (Roche Applied Science). Western blot analyses were performed using standard protocols with semi-dry transfer Trans-Blot SD (Bio-Rad), LI-COR Odyssey Blocking buffer, and imaging with LI-COR Odyssey Imaging System (LI-COR). The anti-PPARG C26H12, anti-PPARG 81B8, anti-FABP4 D25B3, and anti-CEACAM5 CB30 antibodies were obtained from Cell Signaling Technology. The anti-ACSL5 ab57210 and anti-HMCGS2 EPR8642 antibodies were obtained from Abcam. The anti-VCL (vinculin) V9264 antibody was obtained from Sigma-Aldrich. All primary antibodies were tested at 1:1,000 dilutions, with the exception of anti-VCL, which was tested at a 1:5,000 dilution. Secondary goat anti-mouse 926-68020, and goat-anti-rabbit 926-32211 antibodies were obtained from LI-COR Biosciences and used at 1:15,000 dilutions."}, "[1]": {"test_system": "PPARG target gene expression in UM-UC-9 cells", "assay": "RNA sequencing of UM-UC-9 cells after 7 days dosing", "format": "cell-based, human", "details": "500 nmol/L", "description": "Next, the effects of long-term dosing on the transcriptional profile of the PPARG-amplified cell line, UMUC-9, were evaluated. Briefly, UM-UC-9 cells were treated for 7 days with various PPARG modulators dosed at 500 nmol/L and gene expression was analyzed using RNA sequencing. […] Genes that were more abundantly expressed upon treatment with inverse-agonists included ALPP, SPINK4, and ALDH1A3 (FIG. 5). […] In summary, the in vitro pharmacological properties of known PPARG modulators have been characterized and two distinct chemotypes with bona-fide inverse-agonist activity in PPARG-activated bladder cancer cells were identified.\nRNAseq analysis: RNA was isolated using RNEasy (Qiagen) and an RNAseq library was prepared using NEBNext Ultra Directional RNA Library Prep Kit for Illumina and NEBNext Multiplex Oligos for Illumina (New England BioLabs). RNAseq sequencing was performed using an Illumina MiSeq instrument according to the manufacturers protocol. Sequence data was analyzed using Firehose (Broad Institute, Cambridge MA) to map transcripts and calculate RPKM (SW780 cDNA expression) or TPM (UM-UC-9).\nFor UM-UC-9 RNAseq experiment, the resulting reads were used to calculate transcript abundance in units of TPM (transcripts per million) (18), which were then adjusted using TMM normalization (19) for comparison. […]"}, "[2]": {"molecular_target": "T2, PPARG ligand-binding domain - SMRT/NCOR2 corepressor peptide (Homo sapiens, UniProt P37231)", "T2 construct": "purchased ThermoFisher Scientific", "T2 sequence (P37231 238-503 limits assumed)": "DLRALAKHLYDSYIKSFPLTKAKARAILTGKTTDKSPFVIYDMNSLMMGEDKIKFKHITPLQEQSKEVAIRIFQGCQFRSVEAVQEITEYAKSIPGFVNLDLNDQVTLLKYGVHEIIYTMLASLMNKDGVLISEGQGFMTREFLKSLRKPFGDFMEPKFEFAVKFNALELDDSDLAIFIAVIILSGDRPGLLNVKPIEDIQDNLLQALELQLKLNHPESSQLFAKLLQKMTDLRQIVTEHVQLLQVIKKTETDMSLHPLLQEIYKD", "assay": "TR-FRET corepressor assay, SMRT/NCOR2 peptide", "format": "biochemical", "description": "To evaluate inverse-agonism, a TR-FRET PPARG co-repressor assay (ThermoFisher) that measures recruitment of a fluorescent NCOR1 or NCOR2 corepressor peptide to the PPARG ligand-binding domain was used (ThermoFisher).\nTo determine effects on interactions between PPARG and coregulators, PPARG modulators were tested in two TR-FRET biochemical interaction assays for agonism and inverse-agonism. Agonism was quantitated using a coactivator assay, which measured the interaction between the PPARG ligand-binding domain and a fluorescently-labeled peptide from TRAP220/MED1. […] To evaluate inverse-agonism biochemically, ligand-dependent interactions were measured between PPARG ligand-binding domain and corepressor peptides from NCoR/NCOR1 and SMRT/NCOR2."}}}
{"smiles": "O=C(Nc1ccccc1)c1cc([N+](=O)[O-])ccc1Cl", "note": "[GW9662]", "values": [{"measurement": "effect on unstimulated reporter", "setting": "PPARG", "value": "minimal detectable effect"}, {"measurement": "expression of FABP4", "setting": "FABP4 expression", "value": "not"}, {"measurement": "hierarchical clustering of gene expression signatures", "setting": "[1]", "value": "cluster with vehicle-treated controls"}, {"measurement": "increase in signal", "setting": "[2]", "value": 1.7, "unit": "fold"}]}
